From patent US20160106773A1, “TREATMENT FOR DISEASES RELYING ON DISCOVERY THAT THIOREDOXIN MEDIATES NITRIC OXIDE RELEASE IN CELLS” (Duke University, priority 2008, published 2016)

Key:
Assay type in all cases: in vivo
[1] = test system: person with recurrent restenosis; assay: Working Example II: patient with recurrent restenosis given arsenic trioxide plus nitrate; settings: combination: 0.15 mg/kg/day IV arsenic trioxide and either 60 mg isosorbide mononitrate per day or nitroglycerin patch 1-2 inches up to 4 times a day; after one month
Description: A person with recurrent restenosis is give 0.15 mg/kg/day IV arsenic trioxide and either 60 mg isosorbide mononitrate per day or nitroglycerin patch of 1-2 inches up to 4 times a day.

[2] = test system: person with central core disease, malignant hyperthermia (MH); assay: Working Example VIII: patient with central core disease and malignant hyperthermia; settings: combination: deprenyl 10 mg and ISDN 5 mg po tid
Description: A person with central core disease undergoes operation for pancreatic cancer and course complicated by malignant hyperthermia (MH). The patient is administered deprenyl 10 mg and ISDN 5 mg po tid with acute relief of MH and improvement in muscle function over time.

with muscular dystrophy = assay: Working Example V: patient with muscular dystrophy; settings: combination: deprenyl 10 mg/day plus isosorbide dinitrate (ISDN) 10 mg/day
Description: A person with muscular dystrophy is given deprenyl 10 mg/day plus isosorbide dinitrate (ISDN) 10 mg/day and weakness improves.

[3] = test system: person with rhematoid arthritis; assay: Working Example VII: patient with rheumatoid arthritis; settings: combination: deprenyl 10 mg plus ascorbate 1 gm plus ISDN 5 mg PO TID or plus cysteine or NaHS (final concentration in blood 10 μM-1 mM)
Description: A person with rhematoid arthritis is administered deprenyl 10 mg plus ascorbate 1 gm plus ISDN 5 mg PO TID or plus cysteine or NaHS (final concentration in blood of 10 μM-1 mM). Progression of the disease slows.

65 year with Alzheimers = assay: Working Example VI: patient with Alzheimers; settings: combination: deprenyl 15 mg and S-nitrosoglutathione 10 mg po TID
Description: A 65 year with Alzheimers is administered deprenyl 15 mg and S-nitrosoglutathione 10 mg po TID. Blood pressure is unaltered but memory improves.

person with glioblastoma = assay: Working Example XI: patient with glioblastoma; settings: oral capsule: 6 mg auranofin and 50 mg isosorbide dinitrate, or 6 mg auranofin and 150 mg/m^2 BCNU, or 2.5 mg auranofin and 2 gm L-BSO every 6 hours
Description: A person with glioblastoma is given orally a capsule containing 6 mg auranofin and 50 mg isosorbide dinitrate or 6 mg auranofin and 150 mg/m^2 BCNU or 2.5 mg auranofin and 2 gm L-BSO given every 6 hours. Regression in the cancer occurs.

[4] = test system: person with large cell lymphoma disease; assay: Working Example I: patient with large cell lymphoma given auranofin plus isosorbide dinitrate; settings: combination: 6 mg auranofin and 50 mg isosorbide dinitrate by mouth once a day for a month; patient not responding to treatment
Description: A person with large cell lymphoma disease who was not responding to treatment was given by mouth 6 mg auranofin and 50 mg isosorbide dinitrate once a day for a month. Tumor burden decreases as determined by CAT scan.

person with septic shock = assay: Working Example IX: patient with septic shock; settings: combination: gene therapy for TrxIP and 15 mg/kg intravenous L-NMMA (2 mg/kg IV TID)
Description: A person with septic shock is given gene therapy for TrxIP and 15 mg/kg intravenous L-NMMA (2 mg/kg IV TID).

[5] = test system: person with Parkinson's disease; assay: Working Example III: patient with Parkinson's disease; settings: combination: orally 300 mg N-acetylcysteine and 0.3 mg aptamer directed at Parkin by injection into spinal fluid, 30 days
Description: A person with Parkinson's disease is given orally 300 mg N-acetylcysteine and 0.3 mg dose by injection into spinal fluid (range may be 10 μg-2 mg of body weight) of aptamer directed at Parkin for 30 days. Movement improves.

person with Alzheimer's = assay: Working Example IV: patient with Alzheimer's; settings: combination: NAC 300 mg/day, ascorbate 1 gm/day and minocycline 100 mg TID
Description: A person with Alzheimer's is then started on combination of NAC (300 mg/day), ascorbate 1 gm/day and minocycline 100 mg TID and memory improves.

[6] = test system: person with pancreatic cancer; assay: Working Example X: patient with pancreatic cancer; settings: combination: gene therapy for TrxIP and 10 gms sodium ascorbate by infusion per day
Source text: A person with pancreatic cancer is given gene therapy for TrxIP and by infusion per day 10 gms of sodium ascorbate. The cancer regresses.

O=[N+]([O-])O[C@@H]1CO[C@H]2[C@@H]1OC[C@@H]2O [isosorbide mononitrate]
disease (restenosis) [1]: abates
incidence of thrombotic complication [1]: disappears
restenosis recurrence [1]: does not reoccur

C#CCN(C)[C@H](C)Cc1ccccc1 [deprenyl]
muscle function over time [2]: improvement
relief of MH (malignant hyperthermia) [2]: acute relief
weakness (with muscular dystrophy): improves
Progression of the disease [3]: slows
Blood pressure (65 year with Alzheimers): unaltered
memory (65 year with Alzheimers): improves

CC(=O)OC[C@H]1O[C@@H]([S-])[C@H](OC(C)=O)[C@@H](OC(C)=O)[C@@H]1OC(C)=O.CCP(CC)CC.[Au+] [auranofin]
Regression in the cancer (person with glioblastoma): Regression
Tumor burden as determined by CAT scan [4]: decreases

CCCCS(=N)(=O)CCC(N)C(=O)O [L-BSO, L-buthionine-SR-sulfoximine]
Regression in the cancer (person with glioblastoma): Regression

O=[N+]([O-])O[C@H]1CO[C@H]2[C@@H]1OC[C@H]2O[N+](=O)[O-] [isosorbide dinitrate]
muscle function over time [2]: improvement
relief of MH (malignant hyperthermia) [2]: acute relief
weakness (with muscular dystrophy): improves
Progression of the disease [3]: slows
Regression in the cancer (person with glioblastoma): Regression
Tumor burden as determined by CAT scan [4]: decreases

O=[N+]([O-])OCC(CO[N+](=O)[O-])O[N+](=O)[O-] [nitroglycerin]
disease (restenosis) [1]: abates
incidence of thrombotic complication [1]: disappears
restenosis recurrence [1]: does not reoccur

CC(=O)O.CNC(=N)NCCC[C@H](N)C(=O)O [L-NMMA, Ng-monomethyl-L-arginine, monoacetate salt]
Blood pressure (person with septic shock): increases and stabilizes

CC(=O)N[C@@H](CS)C(=O)O [N-acetylcysteine]
Movement [5]: improves
memory (person with Alzheimer's): improves

O=NN(CCCl)C(=O)NCCCl [BCNU, carmustine]
Regression in the cancer (person with glioblastoma): Regression

N[C@@H](CS)C(=O)O [cysteine]
Progression of the disease [3]: slows

N[C@@H](CCC(=O)N[C@@H](CSN=O)C(=O)NCC(=O)O)C(=O)O [S-nitrosoglutathione]
memory (65 year with Alzheimers): improves

arsenic trioxide
disease (restenosis) [1]: abates
incidence of thrombotic complication [1]: disappears
restenosis recurrence [1]: does not reoccur

O=C1O[C@H]([C@@H](O)CO)C([O-])=C1O.[Na+] [sodium ascorbate]
cancer regression [6]: regresses

[Na+].[SH-] [NaHS]
Progression of the disease [3]: slows
